Source: patent publication US20060147558A1, “Remedies” (priority 2000, published 2006)

How the values were obtained:
[1] = tested on: HGF production of MRC-5 cells; test: enhancing activity for HGF production: MRC-5 cells cultured 24 h with sample, HGF in medium by ELISA; type: cell-based, human; conditions: for Amount of HGF Produced: control = 100%
Experimental: (1) The enhancing activity for HGF production of each of the bamboo blade extract (sample (1)) prepared in item (1) of Example 1, and the lower layer fraction (sample (2)) and the upper layer fraction (sample (3)) prepared in item (2) of Example 1 was assayed. Five-hundred microliters each of MRC-5 cells (CCL 171: manufactured by DAINIPPON PHARMACEUTICAL CO., LTD., code. 02-021) suspended in a DME medium containing 10% fetal bovine serum so as to have a concentration of 1×10^5 cells/ml were added into each well of a 48-well cell culture plate. The cells were cultured at 37° C. for 24 hours in the presence of 5% CO2, and then the medium was exchanged for a DME medium containing 1% fetal bovine serum. Thereafter, the sample was added to the medium, and the cells were further cultured for 24 hours. The medium was then collected, and by using Quantikine Human Hepatocyte Growth Factor (HGF) ELISA Kit (manufactured by Funakoshi, Code. RS-0641-00), the amount of HGF in the medium was determined. The amount of HGF produced was expressed, assuming that the value of the negative control is 100%. […] As the negative control, distilled water was added in the same volume as that of the sample. The amount of HGF produced was expressed, assuming that the value of the negative control is 100%. The results for the sample (1) are shown in Table 1, and the results for the sample (2) and the sample (3) are shown in Table 2. Each experiment was carried out twice, and its average value was taken. […] From the above, it was shown that the bamboo blade extract has an enhancing activity for HGF production.

[2] = tested on: NGF production of L-M cells; test: enhancing activity for NGF production: L-M cells cultured 20 h with sample, NGF in medium by enzyme immunoassay; type: cell-based, murine; conditions: for Amount of NGF Produced: control = 100%; for enhancing activity for NGF production: result in words, no value given
Experimental: L-M cells (ATCC CCL-1.2) from murine fibroblasts were suspended in an M199 medium (manufactured by ICN) containing 0.5% bactopeptone (manufactured by Gibco) so as to have a concentration of 1.5×10^5 cells/ml. The suspension was put in a 96 well plate in an amount of 0.1 ml each well, and the cells were aseptically cultured. After culturing the cells for 3 days, the medium was removed therefrom, and exchanged with an M199 medium containing 0.5% bovine serum albumin (manufactured by Sigma). […] After the termination of the culture, the concentration of the nerve growth factor in the culture medium was assayed by an enzyme immunoassay method (NGF Emax Immuno Assay System, manufactured by Promega). The enhancement for NGF production was expressed, assuming that the NGF concentration in the cell culture medium with no addition of the sample is 100%. The experiment was carried out twice, and an average value was taken. As a result, the yellow pigment from Carthamus tinctorius enhanced NGF production of the L-M cells in a concentration dependent manner.

O=C(/C=C/c1ccc(O)c(O)c1)O[C@@H]1C[C@](O)(C(=O)O)C[C@@H](O)[C@H]1O [Chlorogenic Acid, chlorogenic acid]
Amount of HGF Produced ([1]; 1 μM): 105%
Amount of HGF Produced ([1]; 10 μM): 122%
Amount of HGF Produced ([1]; 100 μM): 302%
Amount of HGF Produced ([1]; 500 μM): 479%
Amount of HGF Produced ([1]; 1000 μM): 624%
enhancing activity for HGF production ([1]; result in words, no value given): enhancing activity for HGF production existed

CCOC(=O)/C=C/c1ccc(O)c(O)c1 [Caffeic acid ethyl ester, caffeic acid ethyl ester]
Amount of NGF Produced ([2]; 62.5 μg/ml): 1279.1%

CC(C)=CCc1c(O[C@@H]2O[C@H](CO)[C@@H](O)[C@H](O)[C@H]2O)ccc2ccc(=O)oc12 [13-2 (8.7), 7-O-β-D-glucopyranosyloxy-8-prenylcoumarin]
Amount of NGF Produced ([2]; 1.0 mg/ml): 792.1%

COc1cc(O)c(CC=C(C)C)c2c1C(=O)CC(c1ccc(O)cc1)O2 (stereo not drawn) [Isoxanthohumol, isoxanthohumol]
Amount of NGF Produced ([2]; 50 μM): 110.7%
Amount of NGF Produced ([2]; 100 μM): 121.4%
Amount of NGF Produced ([2]; 200 μM): 198.0%

CCOC(=O)/C=C/c1ccc(O)c(O)c1 [28 (91.4), caffeic acid ethyl ester]
Amount of NGF Produced ([2]; 0.05 mg/ml): 1058.1%

O=C1C([C@@H]2O[C@H](CO)[C@@H](O)[C@H](O)[C@H]2O)=C(O)/C(=C(O)/C=C/c2ccc(O)cc2)C(=O)C1(O)[C@@H]1O[C@H](CO)[C@@H](O)[C@H](O)[C@H]1O (stereo partly drawn) [Safflomin A, safflomin A]
Amount of NGF Produced ([2]; 2.5 mg/ml): 130.7%
enhancing activity for NGF production [2]: has the enhancing activity for NGF production

COc1ccc(C(=O)O)c2c1CC(O)C(C)(C)O2 (stereo not drawn) [18-4 (10.9), 8-carboxyl-3-hydroxy-5-methoxyl-2-dimethylchroman]
Amount of NGF Produced ([2]; 0.0375 mg/ml): 2510.4%

COC(=O)/C=C/c1ccc(O)c(O)c1 [Caffeic acid methyl ester, caffeic acid methyl ester]
Amount of NGF Produced ([2]; 62.5 μg/ml): 824.4%

O=C(/C=C/c1ccc(O)c(O)c1)O[C@@H]1CC(O)(C(=O)O)C[C@@H](OC(=O)/C=C/c2ccc(O)c(O)c2)C1O (stereo partly drawn) [3,5-Dicaffeoyl-quinic Acid, 3,5-dicaffeoyl-quinic acid]
Amount of HGF Produced ([1]; 1 μM): 142%
Amount of HGF Produced ([1]; 10 μM): 206%
Amount of HGF Produced ([1]; 100 μM): 290%

CC1(C)Oc2ccc3ccc(=O)oc3c2C(O)C1OC1OC(CO)C(O)C(O)C1O [10 (62.2), 3′-O-β-D-glucopyranoyl khellactone]
Amount of NGF Produced ([2]; 2.0 mg/ml): 565.5%

CC(C)=CCC/C(C)=C/Cc1c(O)ccc(C(=O)/C=C/c2ccc(O)cc2)c1O [Xanthoangelol, xanthoangelol]
Amount of NGF Produced ([2]; 25 μM): 126.1%
Amount of NGF Produced ([2]; 50 μM): 202.6%
Amount of NGF Produced ([2]; 100 μM): 265.7%

COc1cc(O)c(CC=C(C)C)c(O)c1C(=O)/C=C/c1ccc(O)cc1 [Xanthohumol, xanthohumol]
Amount of NGF Produced ([2]; 12.5 μM): 235.5%
Amount of NGF Produced ([2]; 25 μM): 387.9%
Amount of NGF Produced ([2]; 50 μM): 443.0%
enhancing activity for NGF production [2]: has the activity

COC(=O)/C=C/c1ccc(O)c(O)c1 [18-3 (10.6), caffeic acid methyl ester]
Amount of NGF Produced ([2]; 0.25 mg/ml): 3039.6%

C/C=C(/C)C(=O)OC1c2c(ccc3ccc(=O)oc23)OC(C)(C)C1O[C@@H]1O[C@H](CO[C@@H]2O[C@H](CO)[C@@H](O)[C@H](O)[C@H]2O)[C@@H](O)[C@H](O)[C@H]1O (stereo partly drawn) [19-, 20-6 (18.8), 4′-O-angeloyl-3′-O-[6-O-(β-D-glucopyranosyl)-β-D-glucopyranosyl]-khellactone]
Amount of NGF Produced ([2]; 1.0 mg/ml): 337.7%

CC(C)=CCc1cc2ccc(=O)oc2cc1O[C@@H]1O[C@H](CO)[C@@H](O)[C@H](O)[C@H]1O [19-, 20-5 (16.4), 7-β-D-glucopyranosyloxy-6-prenylcoumarin]
Amount of NGF Produced ([2]; 1.0 mg/ml): 487.9%
